We go through four compounds from PMC8880039, “Kinetic and Molecular Docking Studies to Determine the Effect of Inhibitors on the Activity and Structure of Fused G6PD::6PGL Protein from Trichomonas vaginalis” (Molecules, 2022).

Common to all, as to format: biochemical
The target of experiment [1] is T1, fused TvG6PD::6PGL enzyme (Trichomonas vaginalis, UniProt A2EC78). In words: Screening of in-house library for inhibition of fused TvG6PD::6PGL catalytic activity. To be noted: read-out: G6PD::6PGL Inhibition (%), compound 400 μM, 0.2 mg/mL enzyme, 2 h at 37 °C. An excerpt:
(§1) Here, we tested an in-house library of 55 compounds with some structural similarity to the previously reported molecules by Preuss et al.. […] In addition, we tested these synthetic compounds as potential recombinant human G6PD (HsG6PD) protein inhibitors. We observed that synthetic compounds, such as JMM-2, CNZ-3, CNZ-7, and CNZ-8, inhibited the fused TvG6PD::6PGL and the HsG6PD enzymes. For example, JMM-2 inhibited both enzymes by 81%, and CNZ-3 inhibited their catalytic activity by around 90%. Conversely, six of them, JMM-3, CNZ-16, CNZ-17, MCC-7, CMC-1, and TDA-5, inhibited the fused TvG6PD::6PGL enzyme activity in a more significant proportion regarding HsG6PD. […] The selective inhibition over the fused TvG6PD::6PGL enzyme may help improve the rational design of new drugs against this parasite without affecting the activity of HsG6PD.
We tested an in-house library of 55 chemical compounds synthesized in the Medicinal Chemistry Laboratory from Facultad de Farmacia, Universidad Autónoma del Estado de Morelos. In-house libraries are advantageous in the discovery of novel bioactive small molecules. […] Subsequently, the residual activity was measured using a standard reaction mixture (1 mM G6P, 0.2 mM NADP^+, 0.1 mM Tris-HCl, and one mM MgCl2, pH 8.0). […]

Experiment [2] concerns the target T1, fused TvG6PD::6PGL enzyme. The experiment in a line: Orthogonal assay: IC50 by residual activity of TvG6PD::6PGL. The protocol: Figure 2 Inactivation of the TvG6PD::6PGL enzyme with CNZ-3, MCC-7, JMM-3, and CNZ-17. The protein was adjusted at 0.2 mg/mL and incubated with increasing concentrations of each compound (0–800 μM) for 2 h at 37 °C. The IC50 values were determined by plotting the residual activity of the fused TvG6PD::6PGL enzyme versus compound concentrations. The assays were carried out in triplicate, and the data represent the mean ± standard error.
The compound concentration at which the enzyme loses 50% of its initial activity (IC50) was determined according to Hernández-Ochoa et al.. The G6PD::6PGL protein was adjusted to a 0.2 mg/mL concentration and incubated for 2 h at 37 °C, with increasing concentrations from 0 to 800 µM of the selected synthetic hit compounds. Then, the residual activity was measured, as mentioned above.

Experiment [3] concerns the target T1, fused TvG6PD::6PGL enzyme. The experiment in a line: Time-course inactivation, second-order rate constant (k2). To be noted: read-out: second-order rate constant of inactivation (k2). The protocol:
To determine the enzyme–inhibitor complex formation rate for each synthetic compound, we first calculated the pseudo-first-order inactivation constants (k1) by measuring the initial velocities at five fixed concentrations, at intervals between 0 and 120 min. […] We observed single-exponential decays of time-course inactivation for all the compounds examined in this study (Figure 3A,C,E,G). Additionally, as the synthetic compounds’ concentrations increased, the enzyme lost catalytic activity in a shorter incubation time; in contrast, the enzymatic activity of enzymes without compounds remained intact. The k1 values for each compound were calculated and plotted against their concentrations, and a linear behavior was obtained and fitted with the linear equation (Figure 3B,D,F,H). The calculated k2 values for JMM-3, CNZ-3, CNZ-17, and MCC-7 were: 0.33, 0.66, 0.38, and 0.26 M^−1 s^−1, respectively. It is important to mention that CNZ-3 formed the enzyme–inhibitor complex faster (k2 value of 0.66 M^−1 s^−1), regarding the CNZ-17 compound. This difference in the affinity to form the enzyme–inhibitor complex may be due to the p-chlorine moiety present in CNZ-3, unlike CNZ-17, which has a methoxy group in the same position.
Figure 3 Inactivation of fused G6PD::6PGL enzyme by chemical compounds. […] We obtained second-order rate constant values of inactivation (k2) of each of (B) JMM-3, (D) CNZ-3, (F) CNZ-17, and (H) CCM-7 by fitting the calculated k1 value versus the concentration of the compound. […] TEXT PRINTED IN THE PICTURE: (B) JMM-3: k2= 0.33 (M^-1* s^-1) | (D) CNZ-3: k2 = 0.66 (M^-1* s^-1) | (F) CNZ-17: k2 = 0.38 (M^-1* s^-1) | (H) MCC-7: k2 = 0.26 (M^-1* s^-1) DOUBTS OF THE COPYIST ABOUT THIS PICTURE: CNZ-3, k2: small print, 0.66 could be 0.68 or 0.86 / CNZ-17, k2: small print, 0.38 could be 0.36 or 0.88 / MCC-7, k2: small print, 0.26 could be 0.28; subscript of k not clearly readable / Panels D, F, H: the sign between M^-1 and s^-1 (asterisk) is not clearly readable
Second-order rate constants of inactivation (k2) were used to determine the inactivation rate of a chemical compound and the formation of the enzyme–inhibitor complex. Therefore, pseudo-first-order rate constants (k1) were determined for the recombinant G6PD::6PGL, adjusted at 0.2 mg/mL, and incubated with four different fixed concentrations of each compound at 37 °C. At the indicated times, a sample was withdrawn, and the residual activity was measured. First, we calculated the pseudo-first-order rate constants (k1) by fitting the residual activities data using a monoexponential decay equation: AR=A0 e^−kt , where AR is the residual activity at time t, A0 is the activity at the initial time, and k is the pseudo-first-order inactivation constant (min^−1). […]

The target of experiment [4] is T1, fused TvG6PD::6PGL enzyme. The experiment in a line: Determination of inhibition type (double reciprocal plots). To be noted: Lineweaver–Burk; for inhibition type for G6P substrate: G6P varied, NADP+ saturating; for inhibition type for NADP+ substrate: NADP+ varied, G6P saturating. An excerpt:
Figure 4 Determination of inhibition type of selected compounds. Lineweaver–Burk plots for the JMM-3, CNZ-3, CNZ-17, and MCC-7 compounds with G6P (A,C,E,G) or NADP^+ (B,D,F,H) substrates. The data represent the mean ± of three independent experiments, and standard errors were lower than 5%. […] Only the inhibition type (a class) is printed as a plot label, and it is uncertain whether that counts as a result. The concentrations in the plot legends stand alone and were left out.
To determine the inhibition mechanism of the four selected hit compounds over the T. vaginalis-fused G6PD::6PGL protein, we monitored the initial velocities in the presence of two fixed concentrations of each of the inhibitory compounds. The initial velocities were determined at different substrate concentrations (from 0 to 140 µM). […] Subsequently, the initial velocities for each physiological substrate (G6P and NADP^+) were analyzed using the double reciprocal plot method.

Experiment [5] deals with recombinant human G6PD (HsG6PD) (Homo sapiens, UniProt P11413). In words: Inhibition of recombinant human G6PD by the selected compounds. To be noted: compound 400 μM.
Sequence of recombinant human G6PD (HsG6PD) (P11413 whole entry): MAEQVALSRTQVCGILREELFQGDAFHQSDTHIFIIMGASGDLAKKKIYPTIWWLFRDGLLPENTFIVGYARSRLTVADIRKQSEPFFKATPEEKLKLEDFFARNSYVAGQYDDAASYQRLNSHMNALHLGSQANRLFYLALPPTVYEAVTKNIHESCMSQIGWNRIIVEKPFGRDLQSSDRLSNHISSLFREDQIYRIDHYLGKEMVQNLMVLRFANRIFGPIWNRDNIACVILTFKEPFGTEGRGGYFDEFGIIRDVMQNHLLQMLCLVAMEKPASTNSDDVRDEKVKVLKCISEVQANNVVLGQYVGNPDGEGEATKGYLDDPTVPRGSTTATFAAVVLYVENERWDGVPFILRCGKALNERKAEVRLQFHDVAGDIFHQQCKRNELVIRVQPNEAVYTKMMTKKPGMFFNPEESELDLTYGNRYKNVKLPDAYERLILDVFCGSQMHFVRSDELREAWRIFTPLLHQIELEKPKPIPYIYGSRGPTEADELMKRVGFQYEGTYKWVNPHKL
Text: as §1

SMILES strings stand for the structures.

T1 sequence (A2EC78 entry or part of it): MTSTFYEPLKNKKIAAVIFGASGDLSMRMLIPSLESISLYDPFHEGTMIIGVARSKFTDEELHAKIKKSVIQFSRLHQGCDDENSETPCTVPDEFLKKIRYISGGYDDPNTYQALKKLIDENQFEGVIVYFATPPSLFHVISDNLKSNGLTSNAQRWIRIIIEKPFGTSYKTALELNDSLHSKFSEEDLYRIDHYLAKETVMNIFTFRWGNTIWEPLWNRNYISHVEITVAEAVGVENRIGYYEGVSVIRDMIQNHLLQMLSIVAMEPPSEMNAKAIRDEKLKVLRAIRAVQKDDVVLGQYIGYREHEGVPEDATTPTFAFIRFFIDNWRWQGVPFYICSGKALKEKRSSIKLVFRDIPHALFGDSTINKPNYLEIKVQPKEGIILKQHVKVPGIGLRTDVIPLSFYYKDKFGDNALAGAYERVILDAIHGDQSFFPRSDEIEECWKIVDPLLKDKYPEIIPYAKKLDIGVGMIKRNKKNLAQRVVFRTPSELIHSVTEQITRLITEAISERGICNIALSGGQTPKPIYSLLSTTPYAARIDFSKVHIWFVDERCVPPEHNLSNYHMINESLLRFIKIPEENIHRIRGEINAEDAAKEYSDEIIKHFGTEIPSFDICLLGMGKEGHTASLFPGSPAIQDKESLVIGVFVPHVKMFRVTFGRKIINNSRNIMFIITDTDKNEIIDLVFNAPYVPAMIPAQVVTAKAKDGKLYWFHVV

For orientation: IC50 means the concentration at which inhibition is half-maximal. Lower therefore signals inhibition by little substance. On to `COc1cc(CCC(=O)O)ccc1OCc1ccc(-c2ccccc2C#N)cc1` [JMM-3], for which the inhibition at 400 µM in experiment [1] is > 50%. In experiment [2], the IC50 was 155 µM. The kinact/KI in experiment [3] came out at 0.33 M⁻¹ s⁻¹. In experiment [4], the “inhibition type for G6P substrate” value is on record as “uncompetitive-type inhibition” and the “inhibition type for NADP+ substrate” value was “uncompetitive-type inhibition”.

In the case of `O=C(COc1ccc(/C=C2\SC(=O)NC2=O)cc1)NC1CCN(Cc2ccccc2)CC1` [MCC-7], the inhibition at 400 µM in experiment [5] came out at 11%. The compound further yielded a half-inhibitory concentration (IC50) in experiment [2] of 260 µM. Further, the kinact/KI in experiment [3] was determined as 0.26 M⁻¹ s⁻¹. Moreover, in experiment [4], the “inhibition type for G6P substrate” value is “non-competitive-type inhibition” and the “inhibition type for NADP+ substrate” value is recorded as “uncompetitive type”.

With `COc1ccc(NC(=O)Nc2ncc([N+](=O)[O-])s2)cc1` [CNZ-17], the inhibition at 400 µM in experiment [1] is > 50%. In addition, the inhibition at 400 µM in experiment [5] is 0%. The compound further had an IC50 in experiment [2] of 356 µM. For the same compound, the kinact/KI in experiment [3] was 0.38 M⁻¹ s⁻¹. In experiment [4], the “inhibition type for G6P substrate” value is reported as “uncompetitive-type inhibition” and the “inhibition type for NADP+ substrate” value is on record as “uncompetitive-type inhibition”.

As for `O=C(Nc1ccc(Cl)cc1)Nc1ncc([N+](=O)[O-])s1` [CNZ-3], in experiment [5], the inhibition at 400 µM was ~90%. The compound further showed an IC50 in experiment [2] of 93 µM. Moreover, the kinact/KI in experiment [3] was 0.66 M⁻¹ s⁻¹. In experiment [4], the “inhibition type for G6P substrate” value was “noncompetitive-type inhibition” and the “inhibition type for NADP+ substrate” value is “competitive-type inhibition”.
